1 molecule from patent publication US10918891B2, “Cosmetic treatment method for the skin” (SYNTIVIA, priority 2016, dated 2021) can be followed below.

The test system of experiment [1] is Sirtuin-6. Put plainly: Gene expression of Sirtuin-6 by real-time quantitative PCR in NHDF. The class given is cell-based, human. The procedure: The cells used for this example are normal human Fibroblasts (NHDF) The cells are inoculated in 96-well plates at a concentration of 10000 cells per well.
The contact with the compound tested is carried out for 24 h. After the 24 h contact, the supernatant is eliminated and the cells are collected in a lysis solution in order to extract the mRNA. The mRNA is reverse transcribed into DNA then quantified by real-time quantitative PCR.

Experiment [2] has as its system explants of human skin (NATIVESKIN, Genoskin). The experiment is described as follows: Morphological study (haematoxylin and eosin) of human skin explants after repeated UVA irradiation. The following applies: skin explant; topical (Ia) 100 ppm; three UVA stresses 50 J/cm2; FIG. 3. The class given is cell-based. The procedure: In these examples, the protective properties of the compound (Ia) against the damage caused to the DNA and to the extracellular matrix by repeated UVA irradiation, are measured on explants of human skin (NATIVESKIN, Genoskin).
Upon reception of the explants, the latter are topically coated with Carbopol® (Lubrizol)+DMSO for the non-UVA control (CTL without stress) and for the control with stress by UVAs (CTL UVA), and with Carbopol®+compound (Ia) at 100 ppm for the test.
Over three days, the cells are subjected to three stresses with UVAs at a rate of 50 joules per square centimetre.
The first irradiation takes place 24 hours after the treatments. The products are present before, during and after the irradiation. The control without stress is wrapped in aluminium and also placed in the irradiator.
During the irradiation, the explants inserted are disposed in a petri dish with PBS. Fresh medium (Genoskin Culture medium) is added after the irradiation.
After the third day of irradiation, the explants are cultivated for 24 hours, then collected and fixed for 48 hours in formalin (Sigma). The samples are included in paraffin and cut.
A morphological study of the skin is implemented.
The samples of explant are deparaffined, rehydrated and then they are subjected to colouration with haematoxylin and with eosin in order to observe the in-depth effect of the compound (Ia) on the skin. […]

Experiment [3] relates to Sirtuin-6. Put plainly: Protein expression of Sirtuin-6 by immunofluorescence in NHDF. The class given is cell-based, human. Particulars: (Ia) 10 ppm, 24 hours. The procedure: The cells used for this example are normal human Fibroblasts (NHDF).
In this example, the expression of Sirtuin-6 is measured at the protein level by the technique of immunofluorescence, after in vitro incubation of the cells in the absence or in the presence of compound (Ia) at a concentration of 10 ppm in an aqueous solution with 0.1% dimethylsulfoxide (DMSO).
The cells are cultured at the concentration of 5000 cells per well of 96-well plates, in the presence of standard culture medium for NHDF.
The contact with the compound (Ia) is carried out for 24 hours.
TGFβ is used as a positive control at the concentration of 10 ng/ml in an aqueous solution. A non-treated control is also carried out.
The supernatant is eliminated and the cells are prepared for the fluorescent marking. The cells are fixed in the presence of 3.7% formaldehyde, then permeabilised in a buffer containing 1% Triton®, finally the cells are rinsed and incubated in the presence of an anti-SIRT6 antibody (Abcam) for 2 hours. After washing, the cells are incubated in the presence of the secondary antibody (Alexa GAR488, Invitrogen) for 1 h. After washing, the cells are incubated in the presence of DAPI for 10 min, then rinsed once again.
The fluorescence is then quantified using an automated microscope (ArrayScan® (Cellomics®)).

Experiment [4] concerns normal human Keratinocytes (NHEK). The experiment is described as follows: Reactive oxygen species (H2DCFDA probe) in NHEK after single UVA stress. The experiment is classed as cell-based. How it is done:
The cells used for this example are normal human Keratinocytes (NHEK).
The antioxidant properties (neutralising the production of reactive oxygen species) of the compound (Ia) are evaluated after a single stress with UVAs on NHEKs, by a test based on the use of the fluorescent probe H2DCFDA on a triple culture.
H2DCFDA (2′-7′dichlorodihydrofluorescein diacetate, Fischer Scientific) is a probe that, after having diffused into the cell and after its acetate group has been split by intracellular esterases, can be oxidised by free radicals (H2O2) into DCF (2′-7′ dichlorofluorescein), a fluorescent compound. The production of the free radicals can thus be quantified by the level of fluorescence emitted by the oxidised probe. The more the cell produces free radicals, the higher the level of fluorescence detected.
After 24 hours of incubation with the compound (Ia) (3 ppm in an aqueous solution with 0.1% dimethylsulfoxide) or the reference elements, the cells are placed in the presence of the H2DCFDA probe at 3 ppm for 1 hour at 37° C., 5% CO2 in order to allow its intracellular diffusion.
The reference antioxidant elements are: Trolox ([…], Sigma), at 20 ppm and Quercetin (quercetin dihydrate, Sigma), at 18 ppm.
After one rinsing, the cells are subjected to a single stress with UVAs (in the absence of compound (Ia)) at a rate of 10 joules per square centimetre. The quantification of the fluorescence emitted (excitation: 485 nm; emission: 520 nm) is carried out immediately after the end of the UVA stress. […]
In order to provide a result representative of the cellular population of each condition after a single stress with UVAs, a cellular viability test (MTS) is carried out immediately after the quantification of the fluorescence emitted. The fluorescence values are thus normalised with respect to the cellular viabilities in order for it to be possible to compare the levels of fluorescence of the various conditions to each other.

`Cc1ncc(CO)c(CNC(=O)/C=C/c2ccc(O)c(O)c2)c1O` [Compound (Ia)]: the “Gene expression of the sirtuin-6 compared to the basal level based on 100%” value in the experiment with Sirtuin-6 [1] (24 h contact) came to 166%. The “stimulation of the expression of the gene of the Sirtuin-6 with respect to the untreated control” value with Sirtuin-6 [1] (see Example 13) is 66%. In addition, the “Morphology of the skin (epidermal barrier, structure of the dermis) after UVA” value in experiment [2] is “the epidermal barrier is preserved from the degradation by the UVAs and the structure of the dermis is preserved”. Besides, in the experiment with Sirtuin-6 [3], the “Protein expression of the Sirtuin-6 compared to the basal level, based on 100%” value came to 113.69%. Further, the “Assay of the fluorescence with H2DCFDA after irradiation of NHEKs with UVAs” value in experiment [4] (24 h incubation, (Ia) 3 ppm, Trolox 20 ppm, Quercetin 18 ppm, UVA 10 J/cm2, normalised to viability (MTS), CTL UVA 289687.6, CTL without stress 16441.9) amounted to 198588.8. Moreover, in experiment [4] (NHEK, compound 3 ppm, single UVA stress, FIG. 1), the “reduction of the generation of intracellular H2O2 after UVA stress” value is 40%.
